Laboratory results from patent US7687511B2, “Substituted dihydropyrimidines, dihydropyrimidones and dihydropyrimidinethiones as calcium channel blockers” (priority 2002, dated 2010).

Row | melting point | Compound
1 | 127 to 129 °C | CCCCCCCCCCCCCCCc1cccc(OCC)c1C1NC(=O)NC(C)=C1C(=O)OC (stereo not drawn) [PPK-23, 5-methoxycarbonyl-4-(2-ethoxy-6-pentadecylphenyl)-6-methyl-3,4-dihydropyrimidin-2(1H)-one]
2 | 101 to 102 °C | CCCCCCCCCCCCCCCc1cccc(OC)c1C1NC(=O)NC(C)=C1C(=O)OC (stereo not drawn) [PPK-24, 5-methoxycarbonyl-4-(2-methoxy-6-pentadecylphenyl)-6-methyl-3,4-dihydropyrimidin-2(1H)-one]
3 | 100 °C | CCCCCCCCCCCCCCCc1cccc(OC)c1C1C(C(=O)OC(C)C)=C(C)NC(=O)N1C(=O)OCC (stereo not drawn) [PPK-32, 3,6-dihydro-4-methyl-6-[2-methoxy-6-pentadecylphenyl]-2-oxo-1,5-(2H)-pyrimidinedicarboxylic acid 1-ethyl 5-isopropyl diester]
4 | 120 to 121 °C | CCCCCCCCCCCCCCCc1cccc(OC(C)C)c1C1C(C(=O)OC)=C(C)NC(=O)N1C(=O)OCC (stereo not drawn) [PPK-36, 3,6-dihydro-4-methyl-6-[2-isopropoxy-6-pentadecylphenyl]-2-oxo-1,5-(2H)-pyrimidinedicarboxylic acid 1-ethyl 5-methyl diester]
5 | 90 to 92 °C | CCCCCCCCCCCCCCCc1cccc(OC(C)C)c1C1C(C(=O)OCC)=C(C)NC(=O)N1C(=O)OCC (stereo not drawn) [PPK-37, 3,6-dihydro-4-methyl-6-[2-isopropoxy-6-pentadecylphenyl]-2-oxo-1,5-(2H)-pyrimidinedicarboxylic acid 1,5-diethyl diester]
6 | 109 to 110 °C | CCCCCCCCCCCCCCCc1cccc(OC)c1C1C(C(=O)OCC)=C(C)NC(=O)N1C(=O)OCC (stereo not drawn) [PPK-31, 3,6-dihydro-4-methyl-6-[2-methoxy-6-pentadecylphenyl]-2-oxo-1,5-(2H)-pyrimidinedicarboxylic acid bis(ethyl ester)]
7 | 121 to 122 °C | CCCCCCCCCCCCCCCc1cccc(OC)c1C1C(C(=O)OC)=C(C)NC(=O)N1C(=O)OCC (stereo not drawn) [PPK-30, 3,6-dihydro-4-methyl-6-[2-methoxy-6-pentadecylphenyl]-2-oxo-1,5-(2H)-pyrimidinedicarboxylic acid 1-ethyl 5-methyl diester]
8 | 99 to 100 °C | CCCCCCCCCCCCCCCc1cccc(OCC)c1C1NC(=O)NC(C)=C1C(=O)OCC (stereo not drawn) [PPK-25, 5-ethoxycarbonyl-4-(2-ethoxy-6-pentadecylphenyl)-6-methyl-3,4-dihydropyrimidin-2(1H)-one]
9 | 103 °C | CCCCCCCCCCCCCCCc1cccc(OCC)c1C1C(C(=O)OC)=C(C)NC(=O)N1C(=O)OCC (stereo not drawn) [PPK-33, 3,6-dihydro-4-methyl-6-[2-ethoxy-6-pentadecylphenyl]-2-oxo-1,5-(2H)-pyrimidinedicarboxylic acid 1-ethyl 5-methyl diester]
10 | 88 to 90 °C | CCCCCCCCCCCCCCCc1cccc(OC(C)C)c1C1C(C(=O)OC(C)C)=C(C)NC(=O)N1C(=O)OCC (stereo not drawn) [PPK-38, 3,6-dihydro-4-methyl-6-[2-isopropoxy-6-pentadecylphenyl]-2-oxo-1,5-(2H)-pyrimidinedicarboxylic acid 1-ethyl 5-isopropyl diester]
11 | 112 °C | CCCCCCCCCCCCCCCc1cccc(OCC)c1C1C(C(=O)OCC)=C(C)NC(=O)N1C(=O)OCC (stereo not drawn) [PPK-34, 3,6-dihydro-4-methyl-6-[2-ethoxy-6-pentadecylphenyl]-2-oxo-1,5-(2H)-pyrimidinedicarboxylic acid 1,5-diethyl diester]
12 | 91 to 93 °C | CCCCCCCCCCCCCCCc1cccc(OC)c1C1NC(=O)NC(C)=C1C(=O)OCC (stereo not drawn) [PPK-22, 5-ethoxycarbonyl-4-(2-methoxy-6-pentadecylphenyl)-6-methyl-3,4-dihydropyrimidin-2(1H)-one]
